From US20250388605A1, “HETEROBIFUNCTIONAL COMPOUNDS AND METHODS OF TREATING DISEASE” (Halda Therapeutics OpCo, Inc., priority 2022, published 2025)

Assays:
[1] = system: T-Rex 293 cell line SC cells having increased expression of progesterone receptor isoform B protein; assay: Cellular growth inhibition assay, T-Rex 293 SC cells exposed to doxycycline (increased progesterone receptor isoform B expression), CellTiter-Glo; type: cell-based; conditions: T-Rex 293 SC cells with 10 ng/mL doxycycline (increased PR isoform B), 72 hours
Protocol: (§1) The SC cells were seeded on poly-D-lysine coated, black clear-bottom 384-well plates at 2500/well, in 25 μL Phenol Red Free Dulbecco's Modified Eagle Medium (DMEM) supplemented with 10% w/w charcoal-dextran treated fetal bovine serum (FBS) and 1% w/w pen-strep, with or without 10 ng/mL doxycycline. Pen-Strep is a commercially available mixture of penicillin G and streptomycin, which is used in mammalian cell culture media to prevent bacterial contamination. Phenol Red Free Dulbecco's Modified Eagle Medium (DMEM) supplemented with 10% w/w charcoal-dextran treated fetal bovine serum (FBS) and 1% w/w pen-strep, with or without 10 ng/mL doxycycline is herein referred to as Treatment Medium. Following seeding of cells in the plates, the plates were spun at 300×g for 30 seconds, then equilibrated to room temperature for 30 minutes, and then deposited in a humidified tissue culture incubator maintained at 37° C. with 5% CO2.
(§2) At 24 hours after seeding of the cells, dilutions of test compound were prepared in DMSO and dissolved in Treatment Medium, to achieve a final DMSO concentration of 0.5% w/w, thereby providing the Test Compound Solution. A 25 μL aliquot of the Test Compound Solution was added to cells in the well plates. An equal volume of a solution containing DMSO and Treatment Medium was used as a negative control. Following treatment of cells with Test Compound Solution or said equal volume of a solution containing DMSO and Treatment Medium, the plates were spun at 300×g for 30 seconds, and then left in an incubator for 72 hours.
(§3) At the end of the treatment duration, cell viability was quantified with CellTiter-Glo 2.0 reagent (Promega Cat #G9243). For this purpose, plates were equilibrated to room temperature for 30 minutes, and then 25 μL of CellTiter-Glo 2.0 reagent was added to cells in the plate wells. Plates were then agitated on a shaker for two minutes at 500 rpm and subsequently incubated at room temperature for 10 minutes. Following incubation, the plates were spun at 3000×g for 30 seconds, then sealed with an optical adhesive cover, and luminescence readings were measured with an EnVision Plate Reader (Perkin Elmer).
(§4) Data was normalized using zero luminescence for baseline. A four-parameter non-linear regression curve fit was applied to dose-response data in GraphPad Prism data analysis software to determine the half-maximal growth inhibitory concentration (GI50) for each test compound.

[2] = system: T-Rex 293 cell line SC cells lacking increased expression of progesterone receptor isoform B protein; assay: Cellular growth inhibition assay, T-Rex 293 SC cells not exposed to doxycycline (no increased progesterone receptor isoform B expression), CellTiter-Glo; type: cell-based; conditions: T-Rex 293 SC cells without doxycycline (no increased PR isoform B), 72 hours
Protocol: as §1, §2, §3, §4

SMILES: CCS(=O)(=O)Nc1ccc(Oc2cccc(OCCOC3CCN(c4ncc(C(=O)N[C@H]5C(C)(C)[C@H](Oc6ccc(C#N)c(Cl)c6)C5(C)C)cn4)CC3)c2)c(-c2cn(C)c(=O)c3[nH]ccc23)c1 [Compound I-6]
- GI50 [1]: < 500 nM
- GI50 [2]: < 500 nM

SMILES: CCS(=O)(=O)Nc1ccc(Oc2cccc(OCCOCCOCCOC3CCN(c4ncc(C(=O)N[C@H]5C(C)(C)[C@H](Oc6ccc(C#N)c(Cl)c6)C5(C)C)cn4)CC3)c2)c(-c2cn(C)c(=O)c3[nH]ccc23)c1 [Compound I-7]
- GI50 [1]: < 500 nM
- GI50 [2]: < 500 nM

SMILES: CCS(=O)(=O)Nc1ccc(Oc2cccc(N3CC4(CN(CC5CCN(c6ncc(C(=O)N[C@H]7C(C)(C)[C@H](Oc8ccc(C#N)c(Cl)c8)C7(C)C)cn6)CC5)C4)C3)c2)c(-c2cn(C)c(=O)c3[nH]ccc23)c1 [Compound I-35, N-((1r, 3r)-3-(3-chloro-4-cyanophenoxy)-2,2,4,4-tetramethylcyclobutyl)-2-(4-((6-(3-(4-(ethylsulfonamido)-2-(6-methyl-7-oxo-6,7-dihydro-1H-pyrrolo[2,3-c]pyridin-4-yl)phenoxy)phenyl)-2,6-diazaspiro[3.3]heptan-2-yl)methyl)piperidin-1-yl)pyrimidine-5-carboxamide]
- GI50 [1]: < 500 nM
- GI50 [2]: > 3000 nM

SMILES: CCS(=O)(=O)Nc1ccc(Oc2cccc(OC3CCC4(CC3)CCN(c3ncc(C(=O)N[C@H]5C(C)(C)[C@H](Oc6ccc(C#N)c(Cl)c6)C5(C)C)cn3)CC4)c2)c(-c2cn(C)c(=O)c3[nH]ccc23)c1 [Compound I-45]
- GI50 [1]: < 500 nM
- GI50 [2]: > 3000 nM

SMILES: CCS(=O)(=O)Nc1ccc(Oc2ccc(F)c(OCCOC3CCN(c4ncc(C(=O)N[C@H]5C(C)(C)[C@H](Oc6ccc(C#N)c(Cl)c6)C5(C)C)cn4)CC3)c2F)c(-c2cn(C)c(=O)c3[nH]ccc23)c1 [Compound I-65]
- GI50 [1]: < 500 nM
- GI50 [2]: < 500 nM

SMILES: Cn1cc(-c2cc(C(C)(C)O)ccc2Oc2cccc(N3CC(N4CCN(c5ncc(C(=O)N[C@H]6C(C)(C)[C@H](Oc7ccc(C#N)c(Cl)c7)C6(C)C)cn5)CC4)C3)c2F)c2cc[nH]c2c1=O [Compound I-92, N-((1r, 3r)-3-(3-chloro-4-cyanophenoxy)-2,2,4,4-tetramethylcyclobutyl)-2-(4-(1-(2-fluoro-3-(4-(2-hydroxypropan-2-yl)-2-(6-methyl-7-oxo-6,7-dihydro-1H-pyrrolo[2,3-c]pyridin-4-yl)phenoxy)phenyl)azetidin-3-yl)piperazin-1-yl)pyrimidine-5-carboxamide]
- GI50 [1]: < 500 nM
- GI50 [2]: < 500 nM

SMILES: CCS(=O)(=O)Nc1ccc(Oc2cccc(OC3CC(C4CCN(c5ncc(C(=O)N[C@H]6C(C)(C)[C@H](Oc7ccc(C#N)c(Cl)c7)C6(C)C)cn5)CC4)C3)c2)c(-c2cn(C)c(=O)c3[nH]ccc23)c1 (stereo partly shown) [Compound I-104]
- GI50 [1]: < 500 nM
- GI50 [2]: > 3000 nM

SMILES: Cn1cc(-c2cc(C(C)(C)O)ccc2Oc2cccc(N3CC(OC4CCN(c5ncc(C(=O)N[C@H]6C(C)(C)[C@H](Oc7ccc(C#N)c(Cl)c7)C6(C)C)cn5)CC4)C3)c2F)c2cc[nH]c2c1=O [Compound I-190]
- GI50 [1]: < 500 nM
- GI50 [2]: < 500 nM

SMILES: Cc1ccc(CCCOC2CCN(c3ncc(C(=O)N[C@H]4C(C)(C)[C@H](Oc5ccc(C#N)c(Cl)c5)C4(C)C)cn3)CC2)c(C)c1Oc1ccc(C(C)(C)O)cc1-c1cn(C)c(=O)c2[nH]ccc12 [Compound I-195]
- GI50 [1]: < 500 nM
- GI50 [2]: > 3000 nM

SMILES: Cn1cc(-c2cc(C(C)(C)O)ccc2Oc2cccc(N3CC(CC4CCN(c5ncc(C(=O)N[C@H]6C(C)(C)[C@H](Oc7ccc(C#N)c(Cl)c7)C6(C)C)cn5)CC4)C3)c2F)c2cc[nH]c2c1=O [Compound I-196]
- GI50 [1]: < 500 nM
- GI50 [2]: > 3000 nM

SMILES: CN(c1ccc(Oc2ccc(C(C)(C)O)cc2-c2cn(C)c(=O)c3[nH]ccc23)cc1)C1CCN(c2ncc(C(=O)N[C@H]3C(C)(C)[C@H](Oc4ccc(C#N)c(Cl)c4)C3(C)C)cn2)CC1 [Compound I-197]
- GI50 [1]: < 500 nM
- GI50 [2]: < 500 nM

SMILES: Cn1cc(-c2cc(C(C)(C)O)ccc2Oc2ccc(CC3CCN(c4ncc(C(=O)N[C@H]5C(C)(C)[C@H](Oc6ccc(C#N)c(Cl)c6)C5(C)C)cn4)CC3)cc2)c2cc[nH]c2c1=O [Compound I-201]
- GI50 [1]: < 500 nM
- GI50 [2]: 500 to 1500 nM

SMILES: Cn1cc(-c2cc(C(C)(C)O)ccc2Oc2ccc(OCC3CCN(c4ncc(C(=O)N[C@H]5C(C)(C)[C@H](Oc6ccc(C#N)c(Cl)c6)C5(C)C)cn4)CC3)cc2)c2cc[nH]c2c1=O [Compound I-202]
- GI50 [1]: < 500 nM
- GI50 [2]: 500 to 1500 nM

SMILES: Cn1cc(-c2cc(C(C)(C)O)ccc2Oc2ccc(OCCN3CCN(c4ncc(C(=O)N[C@H]5C(C)(C)[C@H](Oc6ccc(C#N)c(Cl)c6)C5(C)C)cn4)CC3)cc2)c2cc[nH]c2c1=O [Compound I-204]
- GI50 [1]: < 500 nM
- GI50 [2]: 500 to 1500 nM

SMILES: CN(C1CCN(c2ncc(C(=O)N[C@H]3C(C)(C)[C@H](Oc4ccc(C#N)c(Cl)c4)C3(C)C)cn2)CC1)C1CN(c2ccc(Oc3ccc(C(C)(C)O)cc3-c3cn(C)c(=O)c4[nH]ccc34)cc2)C1 [Compound I-208]
- GI50 [1]: < 500 nM
- GI50 [2]: < 500 nM

SMILES: Cn1cc(-c2cc(C(C)(C)O)ccc2Oc2ccc(N3CC(OC4CCN(c5ncc(C(=O)N[C@H]6C(C)(C)[C@H](Oc7ccc(C#N)c(Cl)c7)C6(C)C)cn5)CC4)C3)cc2)c2cc[nH]c2c1=O [Compound I-219]
- GI50 [1]: < 500 nM
- GI50 [2]: > 3000 nM

SMILES: CCS(=O)(=O)c1ccc(Oc2ccc(OCC3CCN(c4ncc5c(n4)CN([C@H]4C(C)(C)[C@H](Cc6ccc(C#N)c(Cl)c6)C4(C)C)C5=O)CC3)cc2)c(-c2cn(C)c(=O)c3[nH]ccc23)c1 [Compound I-220]
- GI50 [1]: < 500 nM
- GI50 [2]: < 500 nM

SMILES: CC(C)N(C1CCN(c2ncc(C(=O)N[C@H]3C(C)(C)[C@H](Oc4ccc(C#N)c(Cl)c4)C3(C)C)cn2)CC1)C1CN(c2cccc(Oc3ccc(C(C)(C)O)cc3-c3cn(C)c(=O)c4[nH]ccc34)c2F)C1 [Compound I-221]
- GI50 [1]: < 500 nM
- GI50 [2]: 1500 to 3000 nM

SMILES: Cn1cc(-c2cc(C(C)(C)O)ccc2Oc2ccc(N3CC(CN4CC5CC4CN5c4ncc(C(=O)N[C@H]5C(C)(C)[C@H](Oc6ccc(C#N)c(Cl)c6)C5(C)C)cn4)C3)cc2)c2cc[nH]c2c1=O (stereo partly shown) [Compound I-228]
- GI50 [1]: < 500 nM
- GI50 [2]: < 500 nM

SMILES: CN(C1CN(c2ccc(Oc3ccc(C(C)(C)O)cc3-c3cn(C)c(=O)c4[nH]ccc34)cc2)C1)C1CN(c2ncc(C(=O)N[C@H]3C(C)(C)[C@H](Oc4ccc(C#N)c(Cl)c4)C3(C)C)cn2)C1 [Compound I-238]
- GI50 [1]: < 500 nM
- GI50 [2]: < 500 nM

SMILES: CN(CC1CCN(c2ncc(C(=O)N[C@H]3C(C)(C)[C@H](Oc4ccc(C#N)c(Cl)c4)C3(C)C)cn2)CC1)C1(c2ccc(Oc3ccc(C(C)(C)O)cc3-c3cn(C)c(=O)c4[nH]ccc34)cc2)COC1 [Compound I-255]
- GI50 [1]: < 500 nM
- GI50 [2]: 1500 to 3000 nM

SMILES: Cn1cc(-c2cc(C(C)(C)O)ccc2Oc2ccc(CCCC3CC4(C3)CN(c3ncc(C(=O)N[C@H]5C(C)(C)[C@H](Oc6ccc(C#N)c(Cl)c6)C5(C)C)cn3)C4)cc2)c2cc[nH]c2c1=O [Compound I-268]
- GI50 [1]: < 500 nM
- GI50 [2]: < 500 nM

SMILES: Cn1cc(-c2cc(C(C)(C)O)ccc2Oc2ccc(N3CC(CC4CN(c5ncc(C(=O)N[C@H]6C(C)(C)[C@H](Oc7ccc(C#N)c(Cl)c7)C6(C)C)cn5)C4)C3)cc2)c2cc[nH]c2c1=O [Compound I-280]
- GI50 [1]: < 500 nM
- GI50 [2]: < 500 nM
